This passage reports inhibition results from ChEMBL document CHEMBL5329217, “Hesperidin Methyl Chalcone reduces extracellular Aβ(25-35) peptide aggregation and fibrillation and also protects Neuro 2a cells from Aβ(25-35) induced neuronal dysfunction” (Bioorg Med Chem, 2023).

Structures are written as SMILES.

For experiment [1], the target named is Acetylcholinesterase (Electrophorus electricus) (UniProt O42275). Put plainly: Inhibition of electric eel AchE using acetylthiocholine iodide as substrate at 100 ug/ml by Ellman's method relative to control. As to conditions: dose 100.0 µg/ml. (In general: Ellman's reagent forms a yellow product with free thiols.)
Experiment [2] in a line: Antioxidant activity assessed as free radical scavenging activity at 100 ug/ml by DPPH assay relative to control. In kind it is functional. The note with it: dose 100.0 µg/ml. A general note: The DPPH test is a chemical assay of radical scavenging.

Acetylcholinesterase (Electrophorus electricus), sequence (O42275 24-633 limits assumed): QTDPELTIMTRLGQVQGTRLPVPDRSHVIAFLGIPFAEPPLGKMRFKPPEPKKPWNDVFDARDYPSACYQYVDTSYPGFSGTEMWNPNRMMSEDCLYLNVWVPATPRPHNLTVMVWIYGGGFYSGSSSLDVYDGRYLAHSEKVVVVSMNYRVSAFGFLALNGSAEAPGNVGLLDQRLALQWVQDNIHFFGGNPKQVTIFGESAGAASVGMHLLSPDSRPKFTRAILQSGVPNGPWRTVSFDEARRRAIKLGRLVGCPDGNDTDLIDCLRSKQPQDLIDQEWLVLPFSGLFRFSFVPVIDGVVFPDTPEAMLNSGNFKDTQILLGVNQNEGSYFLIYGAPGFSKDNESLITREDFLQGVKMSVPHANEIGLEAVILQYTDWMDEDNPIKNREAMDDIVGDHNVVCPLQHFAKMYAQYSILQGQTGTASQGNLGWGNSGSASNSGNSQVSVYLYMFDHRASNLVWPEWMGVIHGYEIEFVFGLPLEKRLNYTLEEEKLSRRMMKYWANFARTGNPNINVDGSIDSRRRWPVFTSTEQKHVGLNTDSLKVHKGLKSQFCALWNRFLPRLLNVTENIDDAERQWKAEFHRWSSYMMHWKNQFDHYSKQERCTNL

A word on the inhibition: it is the drop in the measured response relative to a control, in per cent. Consider `COc1ccc([C@@H]2CC(=O)c3c(O)cc(O[C@@H]4O[C@H](CO[C@@H]5O[C@@H](C)[C@H](O)[C@@H](O)[C@H]5O)[C@@H](O)[C@H](O)[C@H]4O)cc3O2)cc1O`, for which the inhibition in experiment [1] is 94.4%; in experiment [2] it was 56%.
